The structures appear in SMILES notation.

Assay type in all cases: cell-based
In assay [1] the test system is NCI-1703. As to the kind of experiment: cell viability of NCI-1703 cells, 1 and 10 uM of each erlotinib derivative, and IC50. As to conditions: Homo sapiens; for IC50: cell viability. As for the experimental part:
[Worded in the source for another cell line; this cell line is reported under the same test.] (§1) Sorafenib (Nexavar), erlotinib (Tarceva) and Paclitaxel were kindly provided by Bayer Pharmaceuticals (Pittsburgh, Pa., USA) and Roche Pharmaceuticals (Basel, Switzerland) respectively. Okadaic acid (OA) was purchased from Cayman Chemical (Ann Arbor, Mich., USA) and z-VAD-fmk was obtained from Sigma (St. Louis, Mo., USA). For in vitro studies, drugs at various concentrations were dissolved in dimethyl sulfoxide (DMSO), and added to cells in Dulbecco's modified Eagle's medium (DMEM) or Roswell Park Memorial Institute (RPMI) containing 5% fetal bovine serum (FBS).
(§2) The Sk-Hep1, PLC/PRF/5 (PLC) and Hep3B cell lines were obtained from American Type Culture Collection (ATCC; Manassas, Va., USA). The Huh-7 HCC cell line was obtained from the Health Science Research Resources Bank (HSRRB; Osaka, Japan; JCRB0403). Cells were maintained in DMEM supplemented with 10% FBS in a 37° C. humidified incubator in an atmosphere of 5% CO^2 in air.

The subject of assay [2] is A549. As to the kind of experiment: cell viability of A549 cells, 1 and 10 uM. As to conditions: Homo sapiens. On the procedure: [Worded in the source for another cell line; this cell line is reported under the same test.] as §1, §2
The subject of assay [3] is SW900. In words: cell viability of SW900 cells, 1 and 10 uM. To be noted: Homo sapiens. On the procedure: [Worded in the source for another cell line; this cell line is reported under the same test.] as §1, §2
Assay [4] relates to H520. In words: cell viability of H520 cells, 1 and 10 uM. As to conditions: Homo sapiens, NCI-H520. On the procedure: [Worded in the source for another cell line; this cell line is reported under the same test.] as §1, §2
Assay [5] has as its system H358. In words: cell viability of H358 cells, 1 and 10 uM. As to conditions: Homo sapiens, NCI-H358. On the procedure: [Worded in the source for another cell line; this cell line is reported under the same test.] as §1, §2
The test system of assay [6] is NCI-H226. In words: cell viability of NCI-H226 cells, 1 and 10 uM. To be noted: Homo sapiens. As for the experimental part: [Worded in the source for another cell line; this cell line is reported under the same test.] as §1, §2
The test system of assay [7] is H2170. In words: cell viability of H2170 cells, 1 and 10 uM. To be noted: Homo sapiens, NCI-H2170. As for the experimental part: [Worded in the source for another cell line; this cell line is reported under the same test.] as §1, §2

Turning to `c1ccc(Oc2ccc(Nc3nc4ccccc4nc3Nc3ccc(Oc4ccccc4)cc3)cc2)cc1` [TD53, N^2,N^3-bis(4-phenoxyphenyl)quinoxaline-2,3-diamine], the viability at 1 µM in assay [1] is 68.4 ± 1.4%; in assay [2], 99.4 ± 6.9%; in assay [3], 121 ± 9.01%; in assay [4], 101.7 ± 0.34%; in assay [5], 120 ± 9.2%; in assay [6], 86.2 ± 5.7%. For the same molecule, in assay [7], the viability at 1 µM was 99.7 ± 6%. The viability at 10 µM in assay [1] was found to be 46.7 ± 0.2%; in assay [2] it was 82.7 ± 99.9%; in assay [4], 10.6 ± 0.58%; in assay [5], 41.9 ± 3.9%; in assay [6], 56.8 ± 2.7%; in assay [7], 59.2 ± 1.25%. The same molecule registered an IC50 in assay [1] of 7.4 µM.

In the case of `c1ccc(CNc2nc3ccccc3nc2NCc2ccccc2)cc1` [TD54, N^2,N^3-dibenzylquinoxaline-2,3-diamine], the viability at 1 µM in assay [1] worked out at 127 ± 2%; in assay [3] it was 125 ± 27%; in assay [4], 118 ± 3%; in assay [6], 120 ± 4.9%; in assay [7], 100 ± 4.93%. Moreover, the viability at 10 µM in assay [1] turned out to be 96.7 ± 4.2%; in assay [3], 126 ± 10.6%; in assay [4], 102 ± 1.46%; in assay [6], 110.9 ± 0.8%; in assay [7], 79.1 ± 7.69%.

Turning to `c1ccc(Nc2nc3ccccc3nc2Nc2ccccc2)cc1` [TD55, N^2,N^3-diphenylquinoxaline-2,3-diamine], the viability at 1 µM came to 64.2 ± 5.3% in assay [1]; 100 ± 7.2% in assay [2]; 100 ± 6.69% in assay [3]; 89.9 ± 1.02% in assay [4]; 110 ± 14.2% in assay [5]; 106 ± 17.3% in assay [6]. Further, the viability at 1 µM in assay [7] is 102.7 ± 0.73%. Moreover, the viability at 10 µM worked out at 49.9 ± 4.8% in assay [1]; 36.5 ± 5.9% in assay [2]; 88.3 ± 1.29% in assay [3]; 59.2 ± 15.8% in assay [4]; 42.1 ± 0.6% in assay [5]; 96.4 ± 7.4% in assay [6]. Further, in assay [7], the viability at 10 µM worked out at 94.8 ± 6.05%. Moreover, the IC50 in assay [1] came to 8.3 µM.

Consider `Clc1cccc(Nc2nc3ccccc3nc2Nc2cccc(Cl)c2)c1` [TD56, N^2,N^3-bis(3-chlorophenyl)quinoxaline-2,3-diamine], for which the viability at 1 µM amounted to 49.9 ± 4.7% in assay [1]; 118 ± 5.41% in assay [3]; 98.4 ± 6.37% in assay [4]; 115.4 ± 0.8% in assay [6]; 95 ± 0.91% in assay [7]. For the same molecule, the viability at 10 µM in assay [1] was found to be 28.8 ± 2.3%; in assay [3], 1.46 ± 3.6%; in assay [4], 4.76 ± 0.24%; in assay [6], 19 ± 2%; in assay [7], 32.5 ± 14.1%.

Turning to `Cc1ccc(F)c(Nc2nc3ccccc3nc2Nc2cc(C)ccc2F)c1` [TD58, N^2,N^3-bis(2-fluoro-5-methylphenyl)quinoxaline-2,3-diamine], the viability at 1 µM in assay [1] was 127 ± 2.9%; in assay [3] it was 111 ± 1.54%; in assay [4], 96.2 ± 1.22%; in assay [6] it was 123 ± 3.6%; in assay [7] it was 92.8 ± 2.03%. The viability at 10 µM in assay [1] was 98.9 ± 1.1%; in assay [3], 91.8 ± 9.78%; in assay [4] it was 95.6 ± 4.66%; in assay [6], 74.9 ± 1.5%; in assay [7], 83 ± 3.41%.

On to `COC(=O)c1ccc2nc(Nc3ccc(OC(F)(F)F)cc3)c(Nc3ccc(OC(F)(F)F)cc3)nc2c1` [TD94, methyl 2,3-bis((4-(trifluoromethoxy)phenyl)amino)quinoxaline-6-carboxylate], for which the viability at 1 µM was found to be 29.9 ± 6.8% in assay [1], 49 ± 6.5% in assay [2], 13 ± 0.2% in assay [5] and 32.1 ± 2.7% in assay [6]. Also, the viability at 10 µM in assay [1] turned out to be 19.5 ± 1.1%; in assay [2], 10.8 ± 0.9%; in assay [5] it was 15.7 ± 5.9%; in assay [6] it was 8 ± 0.1%. Besides, the midpoint of inhibition in assay [1], the IC50, lay at 0.1 µM.

For `O=[N+]([O-])c1ccc2nc(Nc3ccc(F)cc3)c(Nc3ccc(F)cc3)nc2c1` [TD620, N^2,N^3-bis(4-fluorophenyl)-6-nitroquinoxaline-2,3-diamine], the viability at 1 µM in assay [1] is 26.2 ± 0.6%; in assay [2], 48.7 ± 8.4%; in assay [5] it was 24.2 ± 1.4%; in assay [6], 132 ± 5%. Also, the viability at 10 µM came to 21 ± 1.7% in assay [1], 7.8 ± 0.4% in assay [2], 12.6 ± 0.7% in assay [5] and 17.9 ± 0.6% in assay [6]. In assay [1], the IC50 turned out to be 0.3 µM.

For the molecule `O=[N+]([O-])c1ccc2nc(Nc3ccc(Cl)c(F)c3)c(Nc3ccc(Cl)c(F)c3)nc2c1` [TD624, N^2,N^3-bis(4-chloro-3-fluorophenyl)-6-nitroquinoxaline-2,3-diamine], the viability at 1 µM in assay [1] is 90.8 ± 4.8%; in assay [2], 14.3 ± 3.6%; in assay [5], 11.9 ± 1%; in assay [6], 15.7 ± 0.8%.

Take `C#Cc1cccc(Nc2nc3cc([N+](=O)[O-])ccc3nc2Nc2ccc(O)cc2C)c1` [TD625, 4-(2-(3-ethynylphenylamino)-7-nitroquinoxalin-3-ylamino)-3-methylphenol]: the viability at 1 µM came to 224 ± 7% in assay [1], 73.7 ± 3% in assay [2], 92.6 ± 7.4% in assay [5] and 115 ± 7.2% in assay [6].

For the molecule `COc1ccc(Nc2nc3ccc([N+](=O)[O-])cc3nc2Nc2ccc(C(F)(F)F)cc2)cc1` [TD626, N^3-(4-(trifluoromethyl)phenyl)-N^2-(4-methoxyphenyl)-6-nitroquinoxaline-2,3-diamine], the viability at 1 µM in assay [1] turned out to be 111 ± 1.3%; in assay [2], 40.4 ± 0.8%; in assay [5], 24.3 ± 3.6%; in assay [6], 39 ± 2.2%.

Consider `Cc1cc(Nc2nc3ccc([N+](=O)[O-])cc3nc2Nc2ccc(O)cc2)n[nH]1` [TD628, 4-(2-(5-methyl-1H-pyrazol-3-ylamino)-6-nitroquinoxalin-3-ylamino)phenol], for which the viability at 1 µM was determined as 147 ± 4.5% in assay [1], 140 ± 7.3% in assay [5] and 152 ± 1.7% in assay [6].

For `NS(=O)(=O)c1ccc(Nc2nc3ccc([N+](=O)[O-])cc3nc2Nc2ccc(S(N)(=O)=O)cc2)cc1` [TD629, N^2,N^3-bis(4-phenylsulfonamide)-6-nitroquinoxaline-2,3-diamine], the viability at 1 µM in assay [1] was 132.8 ± 1%; in assay [2], 118 ± 1.2%; in assay [5], 113 ± 3.6%; in assay [6] it was 140 ± 1.6%.

On to `COc1ccc(Nc2nc3ccc([N+](=O)[O-])cc3nc2Nc2ccc(F)cc2)cc1` [TD631, N^3-(4-fluorophenyl)-N^2-(4-methoxyphenyl)-6-nitroquinoxaline-2,3-diamine], for which the viability at 1 µM came out at 42.5 ± 2.8% in assay [1], 58.9 ± 3.1% in assay [2], 40.4 ± 1.9% in assay [5] and 35.8 ± 6.9% in assay [6].

In general, viability refers to a read-out of living cells in per cent, often relative to untreated cells. Usually IC50 stands for the concentration that inhibits the measured activity by half.

Source of the values: patent US10189795B2, “Aryl amine substituted quinoxaline used as anticancer drugs” (priority 2014, dated 2019).
